Legend:
[1] = oral-T vs 4-OHT gel 2 mg daily, 2-3 weeks; cited from earlier work
MCF7 xenograft = details: simulation using human PK; cited from earlier work
DCIS lesions = assay: Ki-67 labeling index by immunohistochemistry, phase II presurgical trial of 4-OHT gel vs oral tamoxifen; type: in vivo, human; details: for Ki-67 baseline: Ki-67 LI of DCIS lesions before treatment
Text: Women at risk for thromboembolic disease were excluded, as were those with a history of exogenous hormone use within the past month, and tamoxifen or raloxifene use within the past two years. Randomization was stratified by menopausal status, and enrollment site. Initially, the FDA required exclusions for grade 3 and comedo-type DCIS, mammographic DCIS size of >5 cm, and palpable lesions; these were removed following enrollment of nine subjects in the first year.
All participants provided informed consent. Baseline assessments included a history and physical, explanation of gel application, completion of the Breast Cancer Prevention Trial Eight Symptom Scale (BESS) questionnaire, collection of a venous blood sample, and collection of nipple aspirate fluid (NAF) from NAF yielders. […] Treatment began within 5 days post-randomization and ended on the day prior to surgical resection. Participants were instructed to apply the gel to the entire skin envelope of each breast each morning, after a shower. Duration of therapy was 6-10 weeks. Compliance was assessed through participant diaries, counts of returned pills and of returned gel canisters. Participants who took at least 80% of the prescribed dose were considered compliant.
(§1) Assessments similar to those performed at baseline were repeated on the day prior to, or on the morning of surgery. During surgery, breast adipose tissue from the surgical sample was snap frozen and stored at −80° C. for measurement of tamoxifen and metabolites. The samples were obtained from a location adjacent to the DCIS lesion to provide uniformity between participants undergoing breast conservation and mastectomy. The paraffin block of the core and excision samples were acquired by the recruiting institution and 10 sections from each specimen were submitted to the NU Pathology Core Facility. The sections were cut in batches (with pre- and post-treatment samples in the same batch), shipped cold, and processed for immunohistochemistry within four weeks.
(§2) Secondary endpoints were 1) to compare concentrations of tamoxifen and its metabolites [4-OHT, endoxifen, N-desmethyl tamoxifen (NDT)] in breast tissue, plasma and NAF obtained on the day of surgery; 2) to assess changes in known tamoxifenmodulated pathways in the breast (COX-2 and maspin protein expression, [19,20]) and plasma (SHBG, IGF-1 [14]). Side effect endpoints were 1) the incidence of hot flashes at baseline and before surgery; 2) changes in coagulation related proteins in women on the gel and the oral arms from baseline to immediately before surgery.
(§3) Immunohistochemical (IHC) assessment of these markers was performed on paraffin embedded sections of the core and excision specimens, using standard IHC techniques and MCF7, HCT116 and H292 cells as controls. For maspin we used primary mouse monoclonal antibody (Clone-G167-70,BD Pharmingen, San Jose, Calif.), dilution 1:200; for COX-2, primary mouse monoclonal antibody (Clone-CX-294, Dako, Denmark), dilution 1:100-; and for Ki67, primary mouse monoclonal antibody (Clone-MIB-1, Dako, Denmark), dilution 1:100-antigen. Dako Envision Plus system HRP labeled polymer for 20 min at 37° C. was used as the detection system. Scoring was performed on DCIS lesions only, with manual counting of positively stained DCIS cells. The Ki67 LI was assessed on an average of 300 DCIS cells at 40× magnification. The H score system (Score range: 0-300) was used for COX-2 and maspin markers by a single observer who was blinded to treatment status, with random verification of 20% of slides by a pathologist (PK).

COX-2 = COX-2 expression (H score) by immunohistochemistry, presurgical trial; type: in vivo, human; details: mean ± SD
Experimental: as §1, §2
as §3, with “Scoring was performed on DCIS lesions only, with manual counting of positively stained DCIS cells.” left out, “The H score system (Score range: 0-300) was used for COX-2 and maspin markers by a single observer who was blinded to treatment status, with random verification of 20% of slides by a pathologist (PK).” left out

[2] = Study 1: oral tamoxifen vs transdermal 4-OHT and endoxifen gel, mammary and plasma concentrations; details: for concentration at 6 weeks: athymic nude (Hsd:RHFoxn1^rnu/rnu), rat, oral, 3 mg/kg/day
Experimental: (Z) tamoxifen was prepared as 3 mg/mL in sesame oil. For transdermal gel formulations, 4-OHT (E:Z=50:50) (1 mg/mL), (Z) endoxifen (1 mg/mL), and telapristone (1.5 mg/mL) were prepared in 60% (v/v) ethanol-phosphate buffer containing 0.5% (v/v) oleic acid [13] with 1.5% (w/v) Klucel hydroxypropyl cellulose.
Athymic nude rats (Hsd:RHFoxn1^rnu/rnu, Harlan Laboratories, Inc.) were provided with standard laboratory food and water ad libitum. […] In the gel groups, animals were anesthetized with isoflurane inhalation; the skin surface of axillary mammary glands was cleaned with alcohol swabs and air-dried; 0.1 mL drug gel was applied using a template with an exposed ellipse (π×R1×R2=π1 cm×0.6 cm) around the no. 2 nipple on each side and allowed to dry (total of 1, 0.5 mg/kg/day on each side); animals wore jackets fitted over the forelegs, to prevent loss of gel through grooming.
In both studies, rats were euthanized after 6 weeks of treatment for blood and tissue collections. The treated skin area was cleansed with alcohol prior to dissection. Blood samples were collected from the heart. We collected the whole mammary glands (1 axillary and 1 inguinal) per animal and measured their drug concentrations separately.
The concentrations of all the drugs used in rats and humans were determined by liquid chromatography-tandem mass spectroscopy (API 3000; AB SCIEX, Foster City, Calif., USA). […] The mobile phase was A: 0.1% formic acid in water (v/v) and B: 0.1% formic acid in acetonitrile (v/v). Details of sample processing and quantitation methods are described below. The lowest limits of quantification (LLOQ) were as follow: tamoxifen and N-desmethyl tamoxifen (NDT) (plasma 10 ng/mL; tissue 40 ng/g); 4-OHT and endoxifen (plasma 0.5 ng/mL; tissue 2 ng/g); telapristone and N-desmethyl telapristone (d-telapristone) (plasma 1 ng/mL; tissue 1.5 ng/g); and diclofenac (plasma 0.5 ng/mL; tissue 2 ng/g).
For preclinical studies, the summary statistics as medians and interquartile range (IQR) were reported by treatment group for each analyte obtained from plasma, axillary, and inguinal mammary glands. Concentration differences of each analyte between treatment groups and differences between mammary glands within each treatment group were assessed via the Wilcoxon rank-sum test, and the Wilcoxon signed rank-sum test, respectively.
(Z) tamoxifen and metabolites [(Z) NDT, (E) 4-OHT, and (Z) 4-OHT, (Z) endoxifen] were determined using LC-MS/MS (API 3000; AB SCIEX, Foster City, Calif.). A 100 μL aliquot of plasma was mixed with 200 μL of acetonitrile containing 1 ng each of the deuterated analogs of the analytes (TRC, Toronto, Canada). […]

[3] = 28 days; cited from earlier work
maspin = assay: Maspin expression (H score) by immunohistochemistry, presurgical trial; type: in vivo, human; details: mean ± SD
Experimental: as §1, §2
as §3, with “Scoring was performed on DCIS lesions only, with manual counting of positively stained DCIS cells.” left out, “The H score system (Score range: 0-300) was used for COX-2 and maspin markers by a single observer who was blinded to treatment status, with random verification of 20% of slides by a pathologist (PK).” left out

factor IX = assay: Plasma factor IX antigen ELISA, presurgical trial; type: in vivo, human; details: mean ± SD
Experimental: Plasma samples collected with anticoagulant K3-EDTA were used for human IGF-1 and SHBG assays, and coagulation protein assays (factor VIII, factor IX, von Willebrand factor, and protein S)[23]. The human IGF-1 and SHBG assays were performed with Quantikine Enzyme-linked immunosorbent assay (ELISA) Kits (R&D Systems, Cat # DG100 for IGF-1, and Cat # DSHBGO for SHBG assay). The lower limit of detection was 56 pg/ml, and 5 pmol/L; % CV values were 4.3 and 5.6 for IGF-1, and SHBG assay, respectively. Factor VIII, and factor IX were determined with VisuLize™ antigen ELISA kits (Affinity Biologicals Inc.). von Willebrand factor was measured with immune-turbidimetric assay (Diagnostica Stago Inc. Cat #00518) by STAR analyzer, and total protein S was assayed with an ELISA kit (REAADSR Inc.)

CC/C(=C(\c1ccccc1)c1ccc(OCCN(C)C)cc1)c1ccccc1 [Tamoxifen, (Z)-tamoxifen]
median 4-OHT concentration in nontumor breast tissue (previous study) [1]: 2.0 ng/g
TGI at day 21, 20 mg/day oral (MCF7 xenograft): 63%
Ki-67 post-treatment (DCIS lesions; Ki-67 LI of DCIS lesions after 6-10 weeks, mean ± SD): 3.2 ± 2.3%
Ki-67 baseline (DCIS lesions; mean ± SD): 8.3%
Ki-67 baseline (DCIS lesions; mean ± SD, listed as Oral-T): 8.3 ± 5.2%
Ki-67 Changes from baseline (DCIS lesions; Ki-67 LI of DCIS lesions, 6-10 weeks, mean ± SD): −5.1 ± 5.5%
mean reduction of Ki-67 LI post-therapy (DCIS lesions; decrease from baseline in DCIS lesions, 6-10 weeks): 5.1%
drop in Ki67-LI relative to baseline (DCIS lesions; relative decrease, DCIS lesions): 61%
COX-2 post-treatment (COX-2; DCIS lesions after 6-10 weeks): 78.9 ± 63.5 H-score
COX-2 baseline (COX-2; DCIS lesions before treatment): 67.2 ± 72.4 H-score
COX-2 Changes from baseline (COX-2; DCIS lesions, 6-10 weeks): 11.7 ± 109.8 H-score
concentration at 6 weeks ([2]; axillary mammary gland): 44.2 ng/g
concentration at 6 weeks ([2]; inguinal mammary gland): 69.6 ng/g
concentration at 6 weeks ([2]; plasma): 8 ng/mL
deaths, weight loss, general health, skin irritation ([2]; rats, end of 6 week experiment): no deaths, no weight loss, and no skin irritation
ENX concentration in serum, oral TAM 1 mg daily [3]: 3 ng/mL
ENX concentration in serum, oral TAM 5 mg daily [3]: 9 ng/mL
ENX concentration in serum, oral TAM 20 mg daily [3]: 38 ng/mL
ENX concentration in tumor tissue, oral TAM 1 mg daily [3]: 31 ng/g
ENX concentration in tumor tissue, oral TAM 5 mg daily [3]: 80 ng/g
ENX concentration in tumor tissue, oral TAM 20 mg daily [3]: 340 ng/g
Maspin post-treatment (maspin; DCIS lesions after 6-10 weeks): 142 ± 69 H-score
Maspin baseline (maspin; DCIS lesions before treatment): 107 ± 56 H-score
Maspin Changes from baseline (maspin; DCIS lesions, 6-10 weeks): 35 ± 71 H-score
% Factor IX post-treatment (factor IX; plasma after 6-10 weeks): 87.0 ± 12.2%
% Factor IX baseline (factor IX; plasma before treatment): 86.6 ± 8.8%
% Factor IX Changes from baseline (factor IX; plasma): 0.4 ± 10.2%

Reference: patent US10780067B2, “Endoxifen for local transdermal therapy to the breast” (Northwestern University, priority 2016, dated 2020)
